“And” between values parts separate entries of the source, which are not always exact repeats. Equal values may be shown once. Numbered stars: 1 amine (or outer) side, 2 acyl side, 3 side chain; on linkers, the order of the positions; unused ones are H or OH. Square brackets hold non-standard residues; d marks the D form. Peptide text beside a SMILES is read from it. * marks the point of attachment. Benzoyl(4-SiFtBu2) = CC(C)(C)[Si](F)(c1ccc(C(=O)*)cc1)C(C)(C)C; DOTA = O=C(O)CN1CCN(CC(=O)O)CCN(CC(=O)*)CCN(CC(=O)O)CC1; PEG12 = NCCOCCOCCOCCOCCOCCOCCOCCOCCOCCOCCOCCOCCC(=O)O; d(γGlu) = O=C(O)[C@@H](CCC(=O)[*:2])N[*:1]; PEG8 = NCCOCCOCCOCCOCCOCCOCCOCCOCCC(=O)O; 1Nal = N[C@@H](Cc1cccc2ccccc12)C(=O)O; PEG5 = NCCOCCOCCOCCOCCOCCC(=O)O; NMeNle = CCCC[C@H](NC)C(=O)O; PEG4 = NCCOCCOCCOCCOCCC(=O)O; dDap = NC[C@@H](N)C(=O)O
Legend:
[1] = biological target: T1, Human serum albumin (HSA) (Homo sapiens, UniProt P02768); assay: Human serum albumin binding via high performance affinity chromatography (HPAC); type: in vitro ADME; conditions: Chiralpak HSA column
T1 construct: purchased Daicel, Tokyo, Japan H13H-2433
Description: Human serum albumin (HSA) binding was determined via high performance affinity chromatography (HPAC), according to previously published protocols. Human serum albumin interaction was calculated according to the retention time (n = 1) of our compounds on a Chiralpak HSA column in dependence of nine reference compounds with known HSA interaction.
Human serum albumin binding was determined via high performance affinity chromatography. Therefore, a Chiralpak HSA column (50 × 3 mm, 5 µm, H13H-2433, Daicel, Tokyo, Japan) was used at a constant flow rate of 0.5 ml/min at room temperature. Mobile phase A consisted of a freshly prepared aqueous solution of NH4OAc (pH = 6.9, 50 mM) and mobile phase B of isopropanol. Calibration of the column was performed daily prior to experiments, by determining the retention times of nine reference substances displaying a HSA binding from 13 to 99%. HPLC gradient for all compounds tested was 100% A (0 to 3 min), followed by 80% A (3 to 40 min). All substances tested, were dissolved in a mixture of A/B (0.5 mg/mL, 1:1, v/v). OriginPro 2016G software (Northampton, United States) was used for non-linear regression and data evaluation.

[2] = Lipophilicity, n-octanol/PBS distribution coefficient logD7.4; type: physicochemical; conditions: 177Lu-labeled peptide; n-octanol/PBS (1/1), n ≥ 5
Description: For determination of lipophilicity, the respective ^177Lu-Labeled peptide precursor (~ 1 MBq, 10 µL in 0.04 M HCl) was added to a solution of n-octanol/PBS (1/1, v/v, 1 mL) and vigourously mixed for 3 min at room temperature (n ≥ 5). Afterwards both phases were seperated using a Biofuge 15 centrifuge (Heraus Sepatech GmbH, Osterode, Germany) at 9,000 rpm for 5 min. 200 µL aliquots of both layers were collected separately, measured in a γ-counter (Perkin Elmer, Waltham, MA, USA) and the logD7.4 value was obtained.

[3] = test system: AR42J tumor-bearing CB17-SCID mice; conditions: 24 h p.i.; cited from earlier work

T1 sequence (P02768 25-609): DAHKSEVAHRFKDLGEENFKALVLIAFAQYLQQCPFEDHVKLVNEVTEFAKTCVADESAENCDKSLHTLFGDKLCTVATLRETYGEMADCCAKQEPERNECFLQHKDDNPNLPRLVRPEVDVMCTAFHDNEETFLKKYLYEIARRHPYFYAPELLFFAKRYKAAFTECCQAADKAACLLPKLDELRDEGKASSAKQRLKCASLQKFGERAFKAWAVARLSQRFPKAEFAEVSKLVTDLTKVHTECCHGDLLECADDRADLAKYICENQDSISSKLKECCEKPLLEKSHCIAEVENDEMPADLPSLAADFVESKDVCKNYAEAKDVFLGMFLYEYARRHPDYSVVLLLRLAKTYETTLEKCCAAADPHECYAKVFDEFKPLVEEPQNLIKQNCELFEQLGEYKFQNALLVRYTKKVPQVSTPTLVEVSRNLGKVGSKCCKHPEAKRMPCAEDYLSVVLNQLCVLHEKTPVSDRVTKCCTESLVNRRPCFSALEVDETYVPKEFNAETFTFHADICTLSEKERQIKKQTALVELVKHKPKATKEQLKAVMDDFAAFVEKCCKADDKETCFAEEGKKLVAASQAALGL

Row | Compound | HSA binding ([1]; n = 1) [%] | logD [2] | further results
1 | CCCC[C@@H](C(=O)N[C@@H](CC(=O)O)C(=O)N[C@@H](Cc1cccc2ccccc12)C(N)=O)N(C)C(=O)[C@H](Cc1c[nH]c2ccccc12)NC(=O)CCOCCOCCOCCOCCNC(=O)CC[C@@H](NC(=O)CCOCCOCCOCCOCCOCCNC(=O)[C@@H](CNC(=O)c1ccc([Si](F)(C(C)(C)C)C(C)(C)C)cc1)NC(=O)CN1CCN(CC(=O)O)CCN(CC(=O)O)CCN(CC(=O)O)CC1)C(=O)O [[^nat/177Lu]Lu-DOTA-rhCCK-67, DOTA-D-Dap(p-SiFA)-(PEG)4-B, metal not drawn] ({DOTA}-[dDap](Benzoyl(4-SiFtBu2))[PEG5][d(γGlu)][PEG4]W[NMeNle]D[1Nal]-NH2) | 92.9 | -1.05 ± 0.09 | –
2 | DOTA-D-Glu-Ala-Tyr-Gly-Trp-(N-Me)Nle-Asp-1-Nal-NH2 [[^177Lu]Lu-DOTA-MGS5] | – | – | activity levels in the tumor [3]: 11.0 ± 1.2 %ID/g; kidney retention [3]: 1.3 ± 0.4 %ID/g; tumor-to-kidney ratio [3]: 9.4 ± 3.3; tumor-to-stomach ratio [3]: 4.4 ± 0.7
3 | CCCC[C@@H](C(=O)N[C@@H](CC(=O)O)C(=O)N[C@@H](Cc1cccc2ccccc12)C(N)=O)N(C)C(=O)[C@H](Cc1c[nH]c2ccccc12)NC(=O)CCOCCOCCOCCOCCNC(=O)CC[C@@H](NC(=O)CCOCCOCCOCCOCCOCCOCCOCCOCCNC(=O)CC[C@@H](NC(=O)[C@@H](CNC(=O)c1cc(C(=O)O)cc([Si](F)(C(C)(C)C)C(C)(C)C)c1)NC(=O)CN1CCN(CC(=O)O)CCN(CC(=O)O)CCN(CC(=O)O)CC1)C(=O)O)C(=O)O [[^nat/177Lu]Lu-DOTA-rhCCK-72, DOTA-D-Dap(SiFA-ipa)-D-γ-Glu-(PEG)7-B, metal not drawn] | 89.3 | -2.32 ± 0.03 | –
4 | CCCC[C@@H](C(=O)N[C@@H](CC(=O)O)C(=O)N[C@@H](Cc1cccc2ccccc12)C(N)=O)N(C)C(=O)[C@H](Cc1c[nH]c2ccccc12)NC(=O)CCOCCOCCOCCOCCNC(=O)CC[C@@H](NC(=O)CCOCCOCCOCCOCCOCCOCCOCCOCCOCCOCCOCCOCCNC(=O)CC[C@@H](NC(=O)[C@@H](CNC(=O)C[N+](C)(C)Cc1ccc([Si](F)(C(C)(C)C)C(C)(C)C)cc1)NC(=O)CN1CCN(CC(=O)O)CCN(CC(=O)O)CCN(CC(=O)O)CC1)C(=O)O)C(=O)O [[^nat/177Lu]Lu-DOTA-rhCCK-75, DOTA-D-Dap(SiFAlin)-D-γ-Glu-(PEG)11-B, metal not drawn] | 90.9 | -1.15 ± 0.05 | –
5 | CCCC[C@@H](C(=O)N[C@@H](CC(=O)O)C(=O)N[C@@H](Cc1cccc2ccccc12)C(N)=O)N(C)C(=O)[C@H](Cc1c[nH]c2ccccc12)NC(=O)CCOCCOCCOCCOCCNC(=O)CC[C@@H](NC(=O)CCOCCOCCOCCOCCOCCNC(=O)CC[C@@H](NC(=O)[C@@H](CNC(=O)c1ccc([Si](F)(C(C)(C)C)C(C)(C)C)cc1)NC(=O)CN1CCN(CC(=O)O)CCN(CC(=O)O)CCN(CC(=O)O)CC1)C(=O)O)C(=O)O [[^nat/177Lu]Lu-DOTA-rhCCK-68, DOTA-D-Dap(p-SiFA)-D-γ-Glu-(PEG)4-B, metal not drawn] | 91.2 | -1.65 ± 0.09 | –
6 | DOTA-(D-Glu)6-Ala-Tyr-Gly-Trp-Nle-Asp-Phe-NH2 [[^177Lu]Lu-DOTA-PP-F11N] | – | – | activity levels in the tumor [3]: 1.9 ± 0.8 %ID/g; kidney retention [3]: 3.1 ± 0.6 %ID/g
7 | CCCC[C@@H](C(=O)N[C@@H](CC(=O)O)C(=O)N[C@@H](Cc1cccc2ccccc12)C(N)=O)N(C)C(=O)[C@H](Cc1c[nH]c2ccccc12)NC(=O)CCOCCOCCOCCOCCNC(=O)CC[C@@H](NC(=O)CCOCCOCCOCCOCCOCCOCCOCCOCCNC(=O)CC[C@@H](NC(=O)[C@@H](CNC(=O)C[N+](C)(C)Cc1ccc([Si](F)(C(C)(C)C)C(C)(C)C)cc1)NC(=O)CN1CCN(CC(=O)O)CCN(CC(=O)O)CCN(CC(=O)O)CC1)C(=O)O)C(=O)O [[^nat/177Lu]Lu-DOTA-rhCCK-71, DOTA-D-Dap(SiFAlin)-D-γ-Glu-(PEG)7-B, metal not drawn] | 89.1 | -1.63 ± 0.06 | –
8 | CCCC[C@H](NC(=O)[C@H](Cc1c[nH]c2ccccc12)NC(=O)CNC(=O)[C@H](Cc1ccc(O)cc1)NC(=O)[C@H](C)NC(=O)CC[C@@H](NC(=O)CC[C@@H](NC(=O)CC[C@@H](NC(=O)CC[C@@H](NC(=O)CC[C@@H](NC(=O)CC[C@@H](NC(=O)CC[C@@H](NC(=O)CC[C@@H](NC(=O)[C@@H](CNC(=O)c1ccc([Si](F)(C(C)(C)C)C(C)(C)C)cc1)NC(=O)CN1CCN(CC(=O)O)CCN(CC(=O)O)CCN(CC(=O)O)CC1)C(=O)O)C(=O)O)C(=O)O)C(=O)O)C(=O)O)C(=O)O)C(=O)O)C(=O)O)C(=O)N[C@@H](CC(=O)O)C(=O)N[C@@H](Cc1ccccc1)C(N)=O [[^177Lu]Lu-DOTA-rhCCK-18, DOTA-D-Dap(p-SiFA)-(D-γ-Glu)8-Ala-Tyr-Gly-Trp-Nle-Asp-Phe-NH2, metal not drawn] | – | – | activity levels in the bone [3]: 0.20 ± 0.03 %ID/g; activity levels in the liver [3]: 0.22 ± 0.01 %ID/g; activity levels in the spleen [3]: 0.34 ± 0.09 %ID/g; activity levels in the stomach [3]: 4.3 ± 1.1 %ID/g; activity levels in the tumor [3]: 25.4 ± 4.7 %ID/g; activity uptake in the kidneys [3]: 134 ± 18 %ID/g; tumor-to-kidney ratio [3]: 0.19 ± 0.01; HSA binding ([1]; n = 1, listed as [^natLu]Lu-DOTA-rhCCK-18): 87.1% and 87%
9 | CCCC[C@@H](C(=O)N[C@@H](CC(=O)O)C(=O)N[C@@H](Cc1cccc2ccccc12)C(N)=O)N(C)C(=O)[C@H](Cc1c[nH]c2ccccc12)NC(=O)CCOCCOCCOCCOCCNC(=O)CC[C@@H](NC(=O)CCOCCOCCOCCOCCOCCOCCOCCOCCNC(=O)[C@@H](CNC(=O)c1ccc([Si](F)(C(C)(C)C)C(C)(C)C)cc1)NC(=O)CN1CCN(CC(=O)O)CCN(CC(=O)O)CCN(CC(=O)O)CC1)C(=O)O [[^nat/177Lu]Lu-DOTA-rhCCK-73, DOTA-D-Dap(p-SiFA)-(PEG)7-B, metal not drawn] ({DOTA}-[dDap](Benzoyl(4-SiFtBu2))[PEG8][d(γGlu)][PEG4]W[NMeNle]D[1Nal]-NH2) | 90.4 | -1.02 ± 0.06 | –
10 | CCCC[C@@H](C(=O)N[C@@H](CC(=O)O)C(=O)N[C@@H](Cc1cccc2ccccc12)C(N)=O)N(C)C(=O)[C@H](Cc1c[nH]c2ccccc12)NC(=O)CCOCCOCCOCCOCCNC(=O)CC[C@@H](NC(=O)CCOCCOCCOCCOCCOCCOCCOCCOCCOCCOCCOCCOCCNC(=O)CC[C@@H](NC(=O)[C@@H](CNC(=O)c1ccc([Si](F)(C(C)(C)C)C(C)(C)C)cc1)NC(=O)CN1CCN(CC(=O)O)CCN(CC(=O)O)CCN(CC(=O)O)CC1)C(=O)O)C(=O)O [[^nat/177Lu]Lu-DOTA-rhCCK-76, DOTA-D-Dap(p-SiFA)-D-γ-Glu-(PEG)11-B, metal not drawn] | 86.2 | -1.82 ± 0.09 | –
11 | CCCC[C@@H](C(=O)N[C@@H](CC(=O)O)C(=O)N[C@@H](Cc1cccc2ccccc12)C(N)=O)N(C)C(=O)[C@H](Cc1c[nH]c2ccccc12)NC(=O)CCOCCOCCOCCOCCNC(=O)CC[C@@H](NC(=O)CCOCCOCCOCCOCCOCCOCCOCCOCCOCCOCCOCCOCCNC(=O)[C@@H](CNC(=O)c1ccc([Si](F)(C(C)(C)C)C(C)(C)C)cc1)NC(=O)CN1CCN(CC(=O)O)CCN(CC(=O)O)CCN(CC(=O)O)CC1)C(=O)O [[^nat/177Lu]Lu-DOTA-rhCCK-74, DOTA-D-Dap(p-SiFA)-(PEG)11-B, metal not drawn] ({DOTA}-[dDap](Benzoyl(4-SiFtBu2))[PEG12][d(γGlu)][PEG4]W[NMeNle]D[1Nal]-NH2) | 87.2 | -1.19 ± 0.07 | –
